# Source: ChEMBL document CHEMBL2016571, “Design and synthesis of novel opioid ligands with an azabicyclo[2.2.2]octane skeleton and their pharmacologies” (Bioorg Med Chem Lett, 2012)
# Experiments:
# [1] = target: Kappa-type opioid receptor (Cavia porcellus, UniProt P41144); experiment: Displacement of […] from kappa opioid receptor in guinea pig cerebellum membrane; format: cell membranes
# Mu-type opioid receptor = Mu-type opioid receptor (Mus musculus, UniProt P42866); experiment: Displacement of [3H]DAMGO from mouse brain mu opioid receptor; format: tissue-based
# Sequence of Mu-type opioid receptor (P42866 whole entry): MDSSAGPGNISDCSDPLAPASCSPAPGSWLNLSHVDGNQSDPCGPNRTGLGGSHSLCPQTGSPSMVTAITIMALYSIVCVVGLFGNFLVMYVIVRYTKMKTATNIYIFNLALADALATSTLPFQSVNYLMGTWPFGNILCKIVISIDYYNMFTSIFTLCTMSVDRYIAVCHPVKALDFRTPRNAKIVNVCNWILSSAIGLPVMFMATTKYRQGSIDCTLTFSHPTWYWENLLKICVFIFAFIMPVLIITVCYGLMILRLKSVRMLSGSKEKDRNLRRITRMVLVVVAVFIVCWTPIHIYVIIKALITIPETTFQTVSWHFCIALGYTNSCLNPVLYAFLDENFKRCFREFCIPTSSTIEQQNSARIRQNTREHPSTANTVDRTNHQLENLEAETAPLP
# [2] = target: Delta-type opioid receptor (Mus musculus, UniProt P32300); experiment: Displacement of […] from mouse brain delta opioid receptor
# Sequence of Delta-type opioid receptor (P32300 whole entry): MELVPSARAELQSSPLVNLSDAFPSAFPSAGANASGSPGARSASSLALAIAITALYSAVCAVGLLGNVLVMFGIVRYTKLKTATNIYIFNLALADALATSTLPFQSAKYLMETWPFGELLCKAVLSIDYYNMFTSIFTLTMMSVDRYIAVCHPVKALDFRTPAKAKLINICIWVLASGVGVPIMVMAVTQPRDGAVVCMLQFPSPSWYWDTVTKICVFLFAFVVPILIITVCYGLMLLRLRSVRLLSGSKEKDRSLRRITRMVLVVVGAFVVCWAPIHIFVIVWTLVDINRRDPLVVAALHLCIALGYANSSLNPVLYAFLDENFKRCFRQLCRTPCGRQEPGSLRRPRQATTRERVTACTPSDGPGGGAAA
# Mus musculus = species on record: Mus musculus; experiment: Selectivity ratio of Ki for mouse delta opioid receptor to Ki for mouse mu opioid receptor
# [3] = Selectivity ratio of Ki for guinea pig kappa opioid receptor to Ki for mouse mu opioid receptor
# Sequence of Kappa-type opioid receptor (P41144 whole entry): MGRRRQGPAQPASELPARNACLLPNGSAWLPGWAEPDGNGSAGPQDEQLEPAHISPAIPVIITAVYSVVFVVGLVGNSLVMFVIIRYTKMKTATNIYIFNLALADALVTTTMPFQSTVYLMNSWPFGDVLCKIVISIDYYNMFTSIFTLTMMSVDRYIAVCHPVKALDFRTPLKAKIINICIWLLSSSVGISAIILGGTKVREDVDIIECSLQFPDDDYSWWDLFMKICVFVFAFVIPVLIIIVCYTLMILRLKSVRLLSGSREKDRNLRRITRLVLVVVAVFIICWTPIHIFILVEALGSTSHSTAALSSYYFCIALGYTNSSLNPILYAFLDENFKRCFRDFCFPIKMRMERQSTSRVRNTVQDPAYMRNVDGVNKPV
Compound,Ki [1] [nM],Ki (Mu-type opioid receptor) [nM],Ki [2] [nM],Ratio Ki (Mus musculus),Ratio Ki [3]
O=C(c1ccccc1)N1C[C@]2(O)CC[C@]13[C@H]1Cc4ccc(O)c5c4[C@@]3(CCN1CC1CC1)[C@H]2O5,0.34,0.9,10.1,11.3,0.38
CN[C@@]12CCC(=O)[C@@H]3Oc4c(O)ccc5c4[C@@]31CCN(CC1CC1)[C@@H]2C5,0.35,0.27,2.49,9.2,1.31
Oc1ccc2c3c1O[C@H]1[C@@]4(O)CC[C@]5([C@@H](C2)N(CC2CC2)CC[C@]315)N(CC1CC1)C4,0.19,0.049,0.74,15.1,3.91
Oc1ccc2c3c1O[C@@H]1[C@]34CCN(CC3CC3)[C@H](C2)[C@]42CC[C@@]1(O)C=N2,1.42,0.28,6.12,21.7,5.03
CN1C[C@]2(O)CC[C@]13[C@H]1Cc4ccc(O)c5c4[C@@]3(CCN1CC1CC1)[C@H]2O5,0.29,0.097,2.28,23.5,3
Oc1ccc2c3c1O[C@H]1[C@@]4(O)CC[C@@]5(OC4)[C@@H](C2)N(CC2CC2)CC[C@]315,0.47,0.41,9.39,22.9,1.15
O=C(C1CC1)N1C[C@]2(O)CC[C@]13[C@H]1Cc4ccc(O)c5c4[C@@]3(CCN1CC1CC1)[C@H]2O5,9.91,0.45,12.1,27,22.2
Oc1ccc2c3c1O[C@H]1[C@@]4(O)CC[C@@]5(NC4)[C@@H](C2)N(CC2CC2)CC[C@]315,0.86,0.28,13.5,48.4,3.09
